The source of these data is paper PMC4678575 (MedChemComm, 2013).

Series [1] concerns the target CBP bromodomain (Homo sapiens, UniProt Q92793). Nature of the series: AlphaScreen peptide displacement assay, CBP. Type of series: binding. Conditions: for affinity for the CBP bromodomain, in words: AlphaScreen using isolated bromodomains. For orientation: In Alpha technology, singlet oxygen from a donor bead excites a nearby acceptor bead.
For series [2], the target named is first bromodomain of BRD4 (BRD4(1)) (Homo sapiens, UniProt O60885). Description: AlphaScreen peptide displacement assay, BRD4. The format is binding. Conditions: for inhibition of BRD4(1), in words: AlphaScreen using isolated bromodomains.
For series [3], the target named is CBP (Homo sapiens, UniProt Q92793). Nature of the series: DSF thermal shift, CBP. The format is binding.
A short description of series [4]: Re-examination of stock solutions by LCMS. Type of series: physicochemical. Conditions: mass loss of 18 amu, likely dehydration to indene 16.

CBP bromodomain, sequence (Q92793 1085-1192 limits assumed): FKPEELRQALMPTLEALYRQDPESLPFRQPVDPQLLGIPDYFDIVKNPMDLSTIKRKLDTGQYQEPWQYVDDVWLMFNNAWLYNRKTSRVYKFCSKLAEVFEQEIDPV
CBP, sequence (Q92793 1085-1192 limits assumed): as above

In general, IC50 refers to the concentration at which inhibition is half-maximal. Lower therefore signals greater potency in that assay. In turn, `Cc1noc(C)c1-c1ccc2c(c1)C(OCc1ccccc1)CC2` (stereo not drawn) [Compound 9] gave an IC50 in series [1] greater than 10 µM. Turning to `Cc1noc(C)c1-c1ccc2ncn(Cc3ccc(C#N)cc3)c2c1` [Compound 28a], the “selectivity for BRD4(1) over CBP” value in series [2] (AlphaScreen BRD4(1) vs CBP) was “at least 100 fold”. In series [3], the “stabilization of CBP, in words” value is “only minimal stabilization”. As to `Cc1noc(C)c1-c1ccc2nc[nH]c2c1` [Compound 8], in series [2] (AlphaScreen), the “affinity/potency for BRD4(1) compared with CBP, in words” value is recorded as “comparable affinity for both bromodomains”. In the case of `Cc1noc(C)c1-c1ccc2c(c1)C(O)(c1ccccc1)CC2` (stereo not drawn) [Compound 15], the “chemical stability of stock solutions, in words” value in series [4] is “decomposition of the parent compound”. With `Cc1noc(C)c1-c1ccc2c(c1)C(=O)CC2` [Compound 6], in series [2], the “inhibition of BRD4(1), in words” value was “modest inhibitors”. Moreover, the “affinity for the CBP bromodomain, in words” value in series [1] is given as “no affinity”. Regarding `Cc1noc(C)c1-c1ccc2cc[nH]c2c1` [Compound 7], in series [2], the “inhibition of BRD4(1), in words” value is “modest inhibitors”. For the same compound, the “affinity for the CBP bromodomain, in words” value in series [1] is reported as “no affinity”.
